Assay results as given in ChEMBL document CHEMBL1138997, “Synthesis and antitumor activity of simplified ecteinascidin-saframycin analogs” (Bioorg Med Chem Lett, 2006).

Experiments:
Assay type in all cases: functional, cell-based
Conditions in all cases: Homo sapiens
Bel-7402 = experiment: Cytotoxicity against Bel7402 liver carcinoma cell
BGC-823 = experiment: Cytotoxicity against BGC823 gastric carcinoma cell
HCT-8 = experiment: Cytotoxicity against HCT8 colon carcinoma cell

Compound | IC50 (Bel-7402) | IC50 (BGC-823) | IC50 (HCT-8)
COc1cc2c(cc1OC)[C@@H]1[C@@H]3Cc4cc(OC)c(OC)cc4[C@H](COC(=O)c4ccccc4)N3[C@@H](C#N)[C@H](C2)N1C | 0.59 µM | 0.015 µM | 0.44 µM
COc1cc2c(cc1OC)[C@@H]1[C@@H]3Cc4cc(OC)c(OC)cc4[C@H](COC(=O)c4cnccn4)N3[C@@H](C#N)[C@H](C2)N1C | 3.5 µM | 1.69 µM | 3.48 µM
COc1cc2c(cc1OC)[C@@H]1[C@@H]3Cc4cc(OC)c(OC)cc4[C@H](COC(=O)c4cccnc4)N3[C@@H](C#N)[C@H](C2)N1C | 2.1 µM | 1.02 µM | 3.28 µM
COc1cc2c(cc1OC)[C@@H]1[C@@H]3Cc4cc(OC)c(OC)cc4[C@H](CNC(=O)c4ccccc4)N3[C@@H](C#N)[C@H](C2)N1C | 1.35 µM | 1.4 µM | 1.35 µM
COc1cc2c(cc1OC)[C@@H]1[C@@H]3Cc4cc(OC)c(OC)cc4[C@H](CNC(=O)c4ccccc4Cl)N3[C@@H](C#N)[C@H](C2)N1C | 1.87 µM | 1.91 µM | 1.85 µM
COc1cc2c(cc1OC)[C@@H]1[C@@H]3Cc4cc(OC)c(OC)cc4[C@H](COC(C)=O)N3[C@@H](C#N)[C@H](C2)N1C | 0.34 µM | 0.15 µM | 0.31 µM
COc1cc2c(cc1OC)[C@@H]1[C@@H]3Cc4cc(OC)c(OC)cc4[C@H](COC(=O)c4cccc(Cl)c4)N3[C@@H](C#N)[C@H](C2)N1C | 1.12 µM | 0.029 µM | 0.1 µM
COc1cc2c(cc1OC)[C@@H]1[C@@H]3Cc4cc(OC)c(OC)cc4[C@H](COC(=O)c4cncc(Br)c4)N3[C@@H](C#N)[C@H](C2)N1C | 1.49 µM | 0.45 µM | 1.17 µM
COc1cc2c(cc1OC)[C@@H]1[C@@H]3Cc4cc(OC)c(OC)cc4[C@H](COC(=O)CCCc4ccccc4)N3[C@@H](C#N)[C@H](C2)N1C | 0.12 µM | 0.75 µM | 0.83 µM
COc1cc2c(cc1OC)[C@@H]1[C@@H]3Cc4cc(OC)c(OC)cc4[C@H](CNC(=O)/C=C/c4ccccc4)N3[C@@H](C#N)[C@H](C2)N1C | 1.45 µM | 1.31 µM | 1.78 µM
COc1cc2c(cc1OC)[C@@H]1[C@@H]3Cc4cc(OC)c(OC)cc4[C@H](COC(=O)c4cc5ccccc5[nH]4)N3[C@@H](C#N)[C@H](C2)N1C | 0.85 µM | 0.01 µM | 0.62 µM
COc1cc2c(cc1OC)[C@@H]1[C@@H]3Cc4cc(OC)c(OC)cc4[C@H](COC(=O)/C=C/c4ccccc4)N3[C@@H](C#N)[C@H](C2)N1C | 0.68 µM | 0.058 µM | 0.037 µM
COc1cc2c(cc1OC)[C@@H]1[C@@H]3Cc4cc(OC)c(OC)cc4[C@H](COC(=O)c4cccs4)N3[C@@H](C#N)[C@H](C2)N1C | 0.82 µM | 0.21 µM | 1.6 µM
COc1cc2c(cc1OC)[C@@H]1[C@@H]3Cc4cc(OC)c(OC)cc4[C@H](COC(=O)c4cccc5ccccc45)N3[C@@H](C#N)[C@H](C2)N1C | 0.71 µM | 0.006 µM | 0.34 µM
COc1cc2c(cc1OC)[C@@H]1[C@@H]3Cc4cc(OC)c(OC)cc4[C@H](CNC(=O)c4cccs4)N3[C@@H](C#N)[C@H](C2)N1C | 0.79 µM | 1.16 µM | 1.28 µM
COc1cc2c(cc1OC)[C@@H]1[C@@H]3Cc4cc(OC)c(OC)cc4[C@H](COC(=O)Cc4ccc(F)cc4)N3[C@@H](C#N)[C@H](C2)N1C | 0.2 µM | 0.2 µM | 0.24 µM
COc1cc2c(cc1OC)[C@@H]1[C@@H]3Cc4cc(OC)c(OC)cc4[C@H](CNC(=O)c4ccco4)N3[C@@H](C#N)[C@H](C2)N1C | 1.2 µM | 1.32 µM | 1.38 µM
C=CC(=O)NC[C@H]1c2cc(OC)c(OC)cc2C[C@H]2[C@H]3c4cc(OC)c(OC)cc4C[C@@H]([C@H](C#N)N12)N3C | 1.87 µM | 2 µM | 2.71 µM
COc1cc2c(cc1OC)[C@@H]1[C@@H]3Cc4cc(OC)c(OC)cc4[C@H](COC(=O)c4ccco4)N3[C@@H](C#N)[C@H](C2)N1C | 0.75 µM | 0.58 µM | 0.69 µM
COc1ccc(CC(=O)OC[C@H]2c3cc(OC)c(OC)cc3C[C@H]3[C@H]4c5cc(OC)c(OC)cc5C[C@@H]([C@H](C#N)N23)N4C)cc1 | 3.01 µM | 1.14 µM | 3.56 µM
COc1cc2c(cc1OC)[C@@H]1[C@@H]3Cc4cc(OC)c(OC)cc4[C@H](CNC(=O)c4cccc5ccccc45)N3[C@@H](C#N)[C@H](C2)N1C | 2.08 µM | 1.86 µM | 1.72 µM
COc1cc2c(cc1OC)[C@@H]1[C@@H]3Cc4cc(OC)c(OC)cc4[C@H](CNC(=O)c4ccc([N+](=O)[O-])cc4)N3[C@@H](C#N)[C@H](C2)N1C | 1.22 µM | 1.37 µM | 1.23 µM
COc1cc2c(cc1OC)[C@@H]1[C@@H]3Cc4cc(OC)c(OC)cc4[C@H](CNC(=O)c4cccc(Cl)c4)N3[C@@H](C#N)[C@H](C2)N1C | 0.95 µM | 1.01 µM | 1.54 µM
CCC(=O)OC[C@H]1c2cc(OC)c(OC)cc2C[C@H]2[C@H]3c4cc(OC)c(OC)cc4C[C@@H]([C@H](C#N)N12)N3C | 0.11 µM | 0.15 µM | 0.3 µM
C=CC(=O)OC[C@H]1c2cc(OC)c(OC)cc2C[C@H]2[C@H]3c4cc(OC)c(OC)cc4C[C@@H]([C@H](C#N)N12)N3C | 0.76 µM | 0.46 µM | 2.14 µM
COc1cc2c(cc1OC)[C@@H]1[C@@H]3Cc4cc(OC)c(OC)cc4[C@H](COC(=O)[C@H]4Cc5ccccc5CN4Cc4ccccc4)N3[C@@H](C#N)[C@H](C2)N1C | 1.69 µM | 0.36 µM | 1.42 µM
COc1cc2c(cc1OC)[C@@H]1[C@@H]3Cc4cc(OC)c(OC)cc4[C@H](COC(=O)c4ccccn4)N3[C@@H](C#N)[C@H](C2)N1C | 2.02 µM | 1.44 µM | 5.15 µM
